Test results as given in patent US6461997B1, “Triazole sulfones having herbicidal activity” (Monsanto Technology LLC, priority 1999, dated 2002).

Key:
SOLNI (black nightshade) = assay: Pre-emergence herbicidal activity, warm season; assay type: in vivo, Solanum nigrum; settings: GR80 = lowest tested rate (300, 100, 30, 10 g/ha) with 80% or greater inhibition; approx. 14 days after treating; 30/21° C.
Outline: (§1)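 Seeds sown in sterilised fertilised topsoil received surface-applied compound in 50:50 acetone/water, typically at 300, 100, 30 and 10 g/ha, then greenhouse-grown at 30/21° C (warm-season species) or 18/13° C (cool-season species). Percent inhibition versus untreated plants was scored at about 14 days, giving GR80; an asterisk marks activity short of 80% at the top rate.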

[1] = test system: GALAP (catchweed bedstraw); assay: Pre-emergence herbicidal activity, cool season; assay type: in vivo, Galium aparine; settings: lowest tested rate with 80% or greater inhibition; rates 300, 100, 30, 10 g/ha; about 14 days
Outline: as §1

SINAR (wild mustard) [2] = assay: Pre-emergence herbicidal activity, cool season; assay type: in vivo, Sinapis arvensis; settings: lowest tested rate with 80% or greater inhibition; rates 300, 100, 30, 10 g/ha; about 14 days
Outline: as §1

SASKR (russian thistle) = assay: Pre-emergence herbicidal activity, cool season; assay type: in vivo, Salsola kali; settings: lowest tested rate with 80% or greater inhibition; rates 300, 100, 30, 10 g/ha; about 14 days
Outline: as §1

[3] = test system: LAMPU (purple deadnettle); assay: Pre-emergence herbicidal activity, cool season; assay type: in vivo, Lamium purpureum; settings: lowest tested rate with 80% or greater inhibition; rates 300, 100, 30, 10 g/ha; about 14 days
Outline: as §1

AMARE (redroot pigweed) = assay: Pre-plant incorporated (PPI) herbicidal activity, warm season; assay type: in vivo, Amaranthus retroflexus; settings: PPI application
Protocol: (§2) In another set of tests, the pre-plant incorporated (PPI) activity of compounds of this invention was evaluated on the same species as for the pre-emergence tests described above. In the PPI tests the following procedure, designed to simulate PPI application, was used.
(§3) A pre-prepared topsoil mixture (described above) was placed in a pot and compacted to a depth of 1.0 to 1.25 cm from the top of the pot. Seeds of each of several monocotyledonous and dicotyledonous annual plant species were placed on top of the soil. A sufficient quantity of soil to cover the seeds and level fill the pot was weighed into an open container. A known amount of the test compound was dissolved or suspended in an organic solvent and applied by spraying to this cover soil. The cover soil was thoroughly mixed to distribute the test compound throughout the cover soil, and was then applied as a cover layer over the seeds. Untreated soil was used as a cover layer for control pots. After treatment the plants were placed in a greenhouse where they received 0.64 cm of overhead irrigation. All subsequent watering consisted of a light overhead mist and/or subirrigation as needed for germination and growth. Tables 9 and 10 below relate to warm season plant species which were placed after pre-emergence treatment in a greenhouse with a 30/21° C. day/night temperature regime. Tables 11 and 12 below relates to cool season plant species placed after pre-emergence treatment in a greenhouse or growth chamber with an 18/13° C. day/night temperature regime. Only the compounds of Examples 1, 6, 8, 11, 13 and 15-20 were included in PPI tests.
(§4) Approximately 14 days after planting and treating, the plants were observed and herbicidal efficacy recorded as percent inhibition by comparison with untreated plants.

DATST (jimsonweed) = assay: as above; assay type: in vivo, Datura stramonium; settings: PPI application
Protocol: as §2, §3, §4

[4] = test system: PANMI (wild proso millet); assay: as above; assay type: in vivo, Panicum miliaceum; settings: PPI application
Protocol: as §2, §3, §4

PANDI (fall panicum) = assay: as above; assay type: in vivo, Panicum dichotomiflorum; settings: PPI application
Protocol: as §2, §3, §4

POLCO (wild buckwheat) = assay: Pre-plant incorporated (PPI) herbicidal activity, cool season; assay type: in vivo, Polygonum convolvulus; settings: weed, PPI application
Protocol: as §2, §3, §4

SINAR (wild mustard) [5] = assay: as above; assay type: in vivo, Sinapis arvensis; settings: weed, PPI application
Protocol: as §2, §3, §4

ALOMY (blackgrass) = assay: as above; assay type: in vivo, Alopecurus myosuroides; settings: weed, PPI application
Protocol: as §2, §3, §4

BROTE (downy brome) = assay: as above; assay type: in vivo, Bromus tectorum; settings: weed, PPI application
Protocol: as §2, §3, §4

| SMILES | Pre-emergence activity (GR80) SOLNI (SOLNI (black nightshade)) [g/ha] | Pre-emergence activity GR80, GALAP [1] [g/ha] | Pre-emergence activity GR80, SINAR (SINAR (wild mustard) [2]) [g/ha] | Pre-emergence activity GR80, SASKR (SASKR (russian thistle)) | Pre-emergence activity GR80, LAMPU [3] [g/ha] | Percent inhibition AMARE (AMARE (redroot pigweed); 30 g/ha) [%] | Percent inhibition AMARE (AMARE (redroot pigweed); 100 g/ha) [%] | Percent inhibition AMARE (AMARE (redroot pigweed); 300 g/ha) [%] | Percent inhibition AMARE (AMARE (redroot pigweed); 900 g/ha) [%] | Percent inhibition DATST (DATST (jimsonweed); 30 g/ha) [%] | Percent inhibition DATST (DATST (jimsonweed); 100 g/ha) [%] | Percent inhibition DATST (DATST (jimsonweed); 300 g/ha) [%] | Percent inhibition DATST (DATST (jimsonweed); 900 g/ha) [%] | Percent inhibition PANMI ([4]; 30 g/ha) [%] | Percent inhibition PANMI ([4]; 100 g/ha) [%] | Percent inhibition PANMI ([4]; 300 g/ha) [%] | Percent inhibition PANDI (PANDI (fall panicum); 30 g/ha) [%] | Percent inhibition PANDI (PANDI (fall panicum); 100 g/ha) [%] | Percent inhibition PANDI (PANDI (fall panicum); 300 g/ha) [%] | Percent inhibition PANDI (PANDI (fall panicum); 900 g/ha) [%] | other results |
| --- | --- | --- | --- | --- | --- | --- | --- | --- | --- | --- | --- | --- | --- | --- | --- | --- | --- | --- | --- | --- | --- |
| CCN(CC)C(=O)n1cnc(S(=O)(=O)C(F)(F)F)n1 [Example 2] | 300 | 100 | 30 | 100 g/ha | 10 | 100 | 95 | 100 | 100 | 0 | 10 | 80 | 70 | 20 | 80 | 100 | 100 | 100 | 100 | 100 | Percent inhibition POLCO (POLCO (wild buckwheat); 30 g/ha): 40%; Percent inhibition POLCO (POLCO (wild buckwheat); 100 g/ha): 40%; Percent inhibition POLCO (POLCO (wild buckwheat); 300 g/ha): 65%; Percent inhibition POLCO (POLCO (wild buckwheat); 900 g/ha): 100%; Percent inhibition SINAR (SINAR (wild mustard) [5]; 30 g/ha): 10%; Percent inhibition SINAR (SINAR (wild mustard) [5]; 100 g/ha): 100%; Percent inhibition SINAR (SINAR (wild mustard) [5]; 300 g/ha): 100%; Percent inhibition SINAR (SINAR (wild mustard) [5]; 900 g/ha): 100%; Percent inhibition ALOMY (ALOMY (blackgrass); 30 g/ha): 50%; Percent inhibition ALOMY (ALOMY (blackgrass); 100 g/ha): 90%; Percent inhibition ALOMY (ALOMY (blackgrass); 300 g/ha): 100%; Percent inhibition ALOMY (ALOMY (blackgrass); 900 g/ha): 100%; Percent inhibition BROTE (BROTE (downy brome); 30 g/ha): 0%; Percent inhibition BROTE (BROTE (downy brome); 100 g/ha): 40%; Percent inhibition BROTE (BROTE (downy brome); 300 g/ha): 50%; Percent inhibition BROTE (BROTE (downy brome); 900 g/ha): 100% |
| CCN(CC)C(=O)n1cnc(S(=O)(=O)C(F)(F)Cl)n1 [Example 3] | 100 | 100 | 300 | [empty] | 100 | 90 | 100 | 100 | 100 | 0 | 30 | 70 | 100 | 100 | 100 | 100 | 80 | 100 | 100 | 100 | Percent inhibition PANMI ([4]; 900 g/ha): 100%; Percent inhibition POLCO (POLCO (wild buckwheat); 30 g/ha): 60%; Percent inhibition POLCO (POLCO (wild buckwheat); 100 g/ha): 70%; Percent inhibition POLCO (POLCO (wild buckwheat); 300 g/ha): 90%; Percent inhibition POLCO (POLCO (wild buckwheat); 900 g/ha): 100%; Percent inhibition SINAR (SINAR (wild mustard) [5]; 30 g/ha): 100%; Percent inhibition SINAR (SINAR (wild mustard) [5]; 100 g/ha): 100%; Percent inhibition SINAR (SINAR (wild mustard) [5]; 300 g/ha): 100%; Percent inhibition SINAR (SINAR (wild mustard) [5]; 900 g/ha): 100%; Percent inhibition ALOMY (ALOMY (blackgrass); 30 g/ha): 60%; Percent inhibition ALOMY (ALOMY (blackgrass); 100 g/ha): 90%; Percent inhibition ALOMY (ALOMY (blackgrass); 300 g/ha): 99%; Percent inhibition ALOMY (ALOMY (blackgrass); 900 g/ha): 100%; Percent inhibition BROTE (BROTE (downy brome); 30 g/ha): 0%; Percent inhibition BROTE (BROTE (downy brome); 100 g/ha): 30%; Percent inhibition BROTE (BROTE (downy brome); 300 g/ha): 90%; Percent inhibition BROTE (BROTE (downy brome); 900 g/ha): 95% |
